Measurements published in patent publication US20220364989A1, “METHOD FOR MEASURING PHOTOTOXICITY OR PHOTOALLERGY AND REAGENT FOR USE THEREIN” (FUJIFILM Corporation, priority 2018, published 2022).
Counter-ions that a name gives are not always drawn. Like-named read-outs stand apart in the source and are kept apart here.

What was measured:
[1] = cited from earlier work
[2] = cited from earlier work; remark: listed apart in the source
[3] = Average score of NAC and NAL depletion and phototoxicity or photoallergy determination, fluorescence detection; details: under light irradiation, single compound
[4] = NAL depletion under and without ultraviolet irradiation, HPLC with UV detection (281 nm); details: for NAL Depletion (%) without light irradiation: 25° C. 24 hours light-shielded; for NAL Depletion (%) without light irradiation / NAL Depletion (%) under light irradiation: test substance solution 1 mmol/L; for NAL Depletion (%) under light irradiation: 2,000 μW/cm^2 for 1 hour then 25° C. 23 hours
[5] = NAC depletion under and without ultraviolet irradiation, HPLC with fluorescence detection (284 nm excitation, 333 nm fluorescence); details: single compound
[6] = NAL depletion under and without ultraviolet irradiation, HPLC with fluorescence detection (284 nm excitation, 333 nm fluorescence); details: single compound
[7] = NAC depletion under and without ultraviolet irradiation, HPLC with UV detection (281 nm); details: for NAC Depletion (%) without light irradiation: 25° C. 24 hours light-shielded; for NAC Depletion (%) without light irradiation / NAC Depletion (%) under light irradiation: test substance solution 1 mmol/L; for NAC Depletion (%) under light irradiation: 2,000 μW/cm^2 for 1 hour then 25° C. 23 hours

Cc1ccc2oc(=O)ccc2c1 [No. 2, 6-Methylcoumarin]
In vivo phototoxicity ([1]; literature classification): Positive
In vivo photoallergy ([2]; literature classification): Positive

COc1c2ccoc2cc2oc(=O)ccc12 [No. 31, 5-Methoxypsoralen]
In vivo phototoxicity ([1]; literature classification): Positive
In vivo photoallergy ([2]; literature classification): Negative

COc1ccc2ccc(=O)oc2c1 [compound 30, 7-Methoxycoumarin]
In vivo photoallergy ([2]; reported in References 1 and 2): Positive

CCCCCCCCCCCC(=O)O [No. 53, Lauric acid]
In vivo phototoxicity ([1]; literature classification): Negative
In vivo photoallergy ([2]; literature classification): Negative

CCCCCCCCCCCCCC(=O)OC(C)C [No. 52, Isopropyl myristate]
In vivo phototoxicity ([1]; literature classification): Negative
In vivo photoallergy ([2]; literature classification): Negative

Cc1ccc(C=C2C(=O)C3(C)CCC2C3(C)C)cc1 (stereo not shown) [No. 39, 4′-Methylbenzylidene camphor]
Average score (%) [3]: 2.0%
In vivo phototoxicity ([1]; in vivo): Negative
In vivo photoallergy ([2]; in vivo): Negative

CNc1ccccc1C(=O)OC [No. 32, Methyl-N-methylanthranilate]
In vivo phototoxicity ([1]; literature classification): Positive
In vivo photoallergy ([2]; literature classification): Negative

COc1cc(O)c(C(=O)c2ccccc2)cc1S(=O)(=O)O [No. 57, Sulisobenzone]
In vivo phototoxicity ([1]; literature classification): Negative
In vivo photoallergy ([2]; literature classification): Negative

CCCCCCCCCCCCCCCCO [No. 49, Cetyl alcohol]
In vivo phototoxicity ([1]; literature classification): Negative
In vivo photoallergy ([2]; literature classification): Negative

O=C(c1ccccc1)c1ccccc1 [No. 4, Benzophenone]
In vivo photoallergy ([2]; in vivo): Positive

O=C(Nc1ccc(Br)cc1)c1cc(Br)cc(Br)c1O [No. 10, Tribromsalan]
In vivo phototoxicity ([1]; in vivo): Positive
In vivo photoallergy ([2]; in vivo): Positive

O=C1NC(=O)C(c2ccccc2)(c2ccccc2)N1 [No. 45, Phenytoin]
In vivo phototoxicity ([1]; literature classification): Negative
In vivo phototoxicity ([1]; reported in References 1 to 3): Negative
In vivo photoallergy ([2]; literature classification): Negative
In vivo photoallergy ([2]; reported in References 1 and 2): Negative

C=CC1CN2CCC1CC2C(O)c1ccnc2ccc(OC)cc12.Cl.O.O (stereo not shown) [compound 15]
Difference in depletion (under light irradiation - without light irradiation) NAL (%) [4]: 4.1%
NAL Depletion (%) without light irradiation [4]: 0.0%
NAL Depletion (%) under light irradiation [4]: 4.1%
Difference in depletion (under light irradiation - without light irradiation) NAC (%) [5]: 98.8%
NAC Depletion (%) ([5]; without light irradiation): 1.0%
Difference in depletion (under light irradiation - without light irradiation) NAL (%) [6]: 0.7%
NAL Depletion (%) ([6]; without light irradiation): 0.0%
Difference in depletion (under light irradiation - without light irradiation) NAC (%) [7]: 98.9%
NAC Depletion (%) without light irradiation [7]: 1.1%
NAC Depletion (%) under light irradiation [7]: 100.0%

[Na+].[O-]n1ccccc1=S [No. 26, Omadine (Na salt)]
In vivo photoallergy ([2]; in vivo): Positive

O=C(Nc1ccc(Cl)cc1)Nc1ccc(Cl)c(Cl)c1 [No. 20, Triclocarban]
In vivo phototoxicity ([1]; literature classification): Negative
In vivo photoallergy ([2]; literature classification): Positive

CCOC(=O)c1ccc(N)cc1 [No. 41, Benzocaine]
In vivo phototoxicity ([1]; literature classification): Negative
In vivo photoallergy ([2]; literature classification): Negative

CCOc1ccc2c(C)cc(=O)oc2c1 [No. 29, 4-Methyl-7-ethoxycoumarin]
In vivo photoallergy ([2]; literature classification): Positive

Nc1ccc(N)cc1 [compound 11, p-Phenylenediamine]
In vivo phototoxicity ([1]; in vivo): Positive
In vivo photoallergy ([2]; reported in References 1 and 2): Positive

COC(=O)c1ccccc1O [compound 43, Methyl salicylate]
In vivo phototoxicity ([1]; reported in References 1 to 3): Negative
In vivo photoallergy ([2]; reported in References 1 and 2): Negative

OCC(O)CO [No. 51, Glycerine]
In vivo phototoxicity ([1]; literature classification): Negative

CNc1ccccc1C(=O)OC [compound 32, Methyl-N-methylanthranilate]
In vivo phototoxicity ([1]; reported in References 1 to 3): Positive
In vivo photoallergy ([2]; reported in References 1 and 2): Negative

COC(=O)c1ccccc1O [No. 43, Methyl salicylate]
In vivo phototoxicity ([1]; literature classification): Negative
In vivo photoallergy ([2]; literature classification): Negative

COc1c(C(C)(C)C)cc([N+](=O)[O-])c(C)c1[N+](=O)[O-] [No. 17, Musk ambrette]
In vivo phototoxicity ([1]; literature classification): Negative
In vivo photoallergy ([2]; literature classification): Positive

NS(=O)(=O)c1cc2c(cc1Cl)NCNS2(=O)=O [No. 24, Hydrochlorothiazide]
In vivo photoallergy ([2]; literature classification): Positive

CC(C)O [No. 47, 2-Propanol]
Average score (%) [3]: 0.2%
In vivo phototoxicity ([1]; in vivo): Negative
In vivo photoallergy ([2]; in vivo): Negative

Oc1c(Cl)cc(Cl)cc1Sc1cc(Cl)cc(Cl)c1O [No. 5, Bithionol]
In vivo phototoxicity ([1]; literature classification): Positive
In vivo photoallergy ([2]; literature classification): Positive

O=C([O-])Cc1ccccc1Nc1c(Cl)cccc1Cl.[Na+] [No. 13, Diclofenac Na, reference compound]
NAC Depletion (%) ([5]; under light irradiation): 100.0%
NAL Depletion (%) ([6]; under light irradiation): 0.0%
In vivo photoallergy ([2]; literature classification): Positive

CC(O)C(=O)O (stereo not shown) [No. 59, Lactic acid]
In vivo photoallergy ([2]; literature classification): Negative

COc1ccc2ccc(=O)oc2c1 [7-Methoxy coumarin]
In vivo photoallergy ([2]; literature classification): Positive

CN(C)C1C(O)=C(C(N)=O)C(=O)C2(O)C(O)=C3C(=O)c4c(O)cccc4C(C)(O)C3CC12 (stereo not shown) [compound 36]
Difference in depletion (under light irradiation - without light irradiation) NAL (%) [4]: 22.5%
NAL Depletion (%) without light irradiation [4]: 5.1%
NAL Depletion (%) under light irradiation [4]: 27.6%
Difference in depletion (under light irradiation - without light irradiation) NAC (%) [5]: 43.4%
NAC Depletion (%) ([5]; without light irradiation): 56.6%
Difference in depletion (under light irradiation - without light irradiation) NAL (%) [6]: 25.6%
NAL Depletion (%) ([6]; without light irradiation): 3.0%
NAC Depletion (%) without light irradiation [7]: −59.4%
NAC Depletion (%) under light irradiation [7]: 44.6%
In vivo photoallergy ([2]; reported in References 1 and 2): Negative

c1ccc2nc3ccccc3cc2c1 [No. 34, Acridine]
In vivo phototoxicity ([1]; literature classification): Positive
In vivo photoallergy ([2]; literature classification): Negative

Nc1ccc(N)cc1 [No. 11, p-Phenylenediamine]
In vivo photoallergy ([2]; literature classification): Positive

c1ccc2nc3ccccc3cc2c1 [compound 34, Acridine]
In vivo phototoxicity ([1]; reported in References 1 to 3): Positive
In vivo photoallergy ([2]; reported in References 1 and 2): Negative

Nc1ccc(S(N)(=O)=O)cc1 [No. 27, Sulfanilamide]
In vivo photoallergy ([2]; literature classification): Positive

C=C[C@H]1CN2CC[C@H]1C[C@H]2[C@H](O)c1ccnc2ccc(OC)cc12.Cl.O.O [No. 15, Quinine HCl (2H2O), reference compound]
NAC Depletion (%) ([5]; under light irradiation): 99.8%
NAL Depletion (%) ([6]; under light irradiation): 0.7%

CC(=O)c1c(C)c([N+](=O)[O-])c(C(C)(C)C)c([N+](=O)[O-])c1C [No. 33, Musk ketone]
In vivo phototoxicity ([1]; literature classification): Positive
In vivo photoallergy ([2]; literature classification): Negative

c1ccc2cc3ccccc3cc2c1 [No. 35, Anthracene]
In vivo phototoxicity ([1]; literature classification): Positive
In vivo photoallergy ([2]; literature classification): Negative

CN(C)CCCN1c2ccccc2Sc2ccc(Cl)cc21 [No. 1, Chlorpromazine HCl]
In vivo phototoxicity ([1]; literature classification): Positive
In vivo photoallergy ([2]; literature classification): Positive

Cc1ncc(CO)c(CO)c1O.Cl [compound 9, Pyridoxine HCl]
In vivo phototoxicity ([1]; in vivo): Positive
In vivo photoallergy ([2]; in vivo): Positive

NNC(=O)c1ccncc1 [No. 25, Isoniazid]
In vivo photoallergy ([2]; literature classification): Positive

O=C([O-])Cc1ccccc1Nc1c(Cl)cccc1Cl.[Na+] [compound 13]
NAL Depletion (%) without light irradiation [4]: 0.0%
NAL Depletion (%) under light irradiation [4]: −4.1%
Difference in depletion (under light irradiation - without light irradiation) NAC (%) [5]: 100.0%
NAC Depletion (%) ([5]; without light irradiation): 0.0%
Difference in depletion (under light irradiation - without light irradiation) NAL (%) [6]: 0.0%
NAL Depletion (%) ([6]; without light irradiation): 0.0%
Difference in depletion (under light irradiation - without light irradiation) NAC (%) [7]: 99.4%
NAC Depletion (%) without light irradiation [7]: 0.6%
NAC Depletion (%) under light irradiation [7]: 100.0%
In vivo photoallergy ([2]; reported in References 1 and 2): Positive

CC(CN1c2ccccc2Sc2ccccc21)N(C)C (stereo not shown) [No. 14, Promethazine HCl]
In vivo phototoxicity ([1]; literature classification): Positive
In vivo photoallergy ([2]; literature classification): Positive

Oc1ccc(Cl)cc1Sc1cc(Cl)ccc1O [No. 22, Fenticlor]
In vivo photoallergy ([2]; literature classification): Positive

CC(C)OC(=O)C(C)(C)Oc1ccc(C(=O)c2ccc(Cl)cc2)cc1 [No. 38, Fenofibrate]
In vivo phototoxicity ([1]; literature classification): Positive

CN1C(C(=O)Nc2ccccn2)=C(O)c2ccccc2S1(=O)=O [No. 8, Piroxicam]
In vivo phototoxicity ([1]; literature classification): Positive
In vivo photoallergy ([2]; literature classification): Positive

CCn1cc(C(=O)O)c(=O)c2cc(F)c(N3CCNCC3)nc21 [No. 6, Enoxacin]
In vivo phototoxicity ([1]; literature classification): Positive
In vivo photoallergy ([2]; literature classification): Positive

c1ccc2cc3ccccc3cc2c1 [compound 35, Anthracene]
In vivo phototoxicity ([1]; reported in References 1 to 3): Positive
In vivo photoallergy ([2]; reported in References 1 and 2): Negative

CCCCCCCCCCCC(=O)[O-].[Na+] [compound 55, Sodium laurate]
In vivo phototoxicity ([1]; in vivo): Negative
In vivo photoallergy ([2]; reported in References 1 and 2): Negative

CC(=O)Oc1ccccc1C(=O)O [No. 40, Aspirin]
In vivo phototoxicity ([1]; literature classification): Negative
In vivo photoallergy ([2]; literature classification): Negative

CCCCCCCCCCCC(=O)O [compound 53, Lauric acid]
In vivo phototoxicity ([1]; reported in References 1 to 3): Negative
In vivo photoallergy ([2]; reported in References 1 and 2): Negative

CCCCCCCCCCCCCC(=O)OC(C)C [compound 52, Isopropyl myristate]
In vivo phototoxicity ([1]; reported in References 1 to 3): Negative
In vivo photoallergy ([2]; reported in References 1 and 2): Negative

CCCCCCCCCCCCOS(=O)(=O)[O-].[Na+] [compound 56, Sodium lauryl sulfate]
In vivo phototoxicity ([1]; in vivo): Negative

CCCCCCCCCCCC(=O)[O-].[Na+] [No. 55, Sodium laurate]
In vivo photoallergy ([2]; literature classification): Negative

CN(C)[C@@H]1C(=O)C(C(N)=O)=C(O)[C@@]2(O)C(=O)C3=C(O)c4c(O)cccc4[C@@](C)(O)[C@H]3C[C@@H]12 [No. 36, Tetracycline, reference compound]
Average score (%) [3]: 64.3%
NAC Depletion (%) ([5]; under light irradiation): 100.0%
NAL Depletion (%) ([6]; under light irradiation): 28.6%
In vivo photoallergy ([2]; literature classification): Negative
